Patent US4994488A, “Novel imidate insecticides” (ICI Americas Inc., priority 1989, dated 1991)

What was measured:
Assay type in all cases: in vivo
[1] = test system: Tobacco Budworm [Heliothis virescens (Fabricius)], larvae; assay: Tobacco budworm contact test, larvae (TBW-C); settings: percent of test compound in solution; second-instar larvae; 5 days
Method: (§1) The compounds in Table 1 above were tested for insecticidal activity using the following testing procedures. LC50 values, based on the results of these tests and calculated according to dosage-mortality curves, are expressed in Table 2.
(§2) Tobacco Budworm [Heliothis virescens (Fabricius)]
(a) Contact: Test compounds were diluted in a 50--50 acetonewater solution. Cotton (Gossypium sp.) cotyledons were immersed in the test solutions for 2-3 seconds and placed on a wire screen to dry. The dried leaves were placed in petri dishes containing a moistened piece of filter paper and infested with 5 second-instar tobacco budworm larvae. The dishes were placed in a high humidity chamber for 5 days, and percent mortality of the larvae recorded. Test concentrations ranged from 0.1% downward. The LC-50 values are expressed below in Table 2 under the heading "TBW-C" in terms of percent of the test compound in the solution.

[2] = test system: Beet Armyworm (Spodoptera exigua); assay: Beet armyworm test (BAW); settings: percent of test compound in solution; second-instar larvae; five days
Method: as §1
Beet Armyworm (Spodoptera exigua)
Test compounds were diluted in a 50--50 acetone-water solution. Young leaves of sugar beets (Beta vulgaris) were immersed in the test solutions for 2-3 seconds and placed on a wire screen to dry. The dried leaves were placed in petri dishes containing a moistened filter paper and infested with five second-instar beet armyworm larvae. The dishes were placed in a high humidity chamber. Mortality of the larvae was recorded five days later. Test concentrations ranged from 0.1% downward. The LC-50 values are expressed below in Table 2 under the heading "BAW" in terms of percent of the test compound in solution.

[3] = test system: Tobacco Budworm [Heliothis virescens (Fabricius)], eggs; assay: Tobacco budworm egg test (TBW-E); settings: percent of test compound in solution; 2-day old eggs
Method: (§3) The compounds in Table 1 above were tested for insecticidal activity using the following testing procedures.
as §2
(b). Eggs: Paper towel patches of 2-day old eggs of the tobacco budworm were dipped in acetone solutions of the test compound and placed in petri dishes containing a portion of larval rearing medium. […] Test concentrations ranged from 0.1% downward. The LC-50 value is expressed below in Table 2 under the heading "TBW-E" in terms of percent of the test compound in the solution.

[4] = test system: two-spotted mite [Tetranychus urticae (Koch)], adults; assay: Two-spotted mite acaricidal test, adults (2SM-A); settings: percent of test compound in solution, 5-7 days
Method: as §1
(§4) Acaricidal Evaluation Test
(§5) The two-spotted mite (2SM) [Tetranychus urticae (Koch)]was employed in tests for miticides. The test procedure was as follows:
(§6) Pinto bean plants (Phaseolus sp.), approximately 10 cm tall, were transplanted into sandy loam soil in small cups and thoroughly infested with two-spotted mites of mixed ages and sexes. Twenty-four hours later the infested plants were inverted and dipped for 2-3 seconds in 50--50 acetone-water solutions of the test compound. Treated plants were held in the greenhouse, and 5-7 days later mortality was determined for both adult mites and the nymphs hatching from eggs which were on the plants at the time of treatment. Test concentrations ranged from 0.05% downward. The LC-50 value is expressed below in Table 2 under the headings "2SM-A" (i.e., adults) and "2SM-E" (i.e. eggs) in terms of percent concentration of the test compound in the solution.

[5] = test system: two-spotted mite [Tetranychus urticae (Koch)], eggs; assay: Two-spotted mite acaricidal test, eggs (2SM-E); settings: percent of test compound in solution; nymphs hatching from eggs; 5-7 days
Method: as §1, §4, §5, §6

[6] = test system: Western Spotted Cucumber Beetle Larvae [Diabrotica undecimpunctata undecimpunctata (Mannherheim)]; assay: Western spotted cucumber beetle larvae soil test (Diabrotica); settings: ppm of test compound in the soil
Method: as §1
Western Spotted Cucumber Beetle Larvae[Diabrotica undecimpunctata undecimpunctata (Mannherheim)]
Ten grams of moist potting soil was placed in a plastic cup. The test compound was dissolved in acetone. A 0.05 ml aliquot of the test sample, diluted to the desired concentration, was added to the soil. The cup was capped and the soil was mixed on a vortex mixer for approximately 15 seconds. An indentation was made on the surface of the soil and approximately 50 Diabrotica eggs were added. The eggs were covered with soil and maintained at room temperature (approximately 70° F. or 21° C.). Four days later a section of Romaine lettuce (Latuca sativa) leaf was placed in the treated cups. One week later the cups were examined for live larvae. TEst concentrations ranged from 25 ppm downward. The LC-50 value is expressed below in Table 2 under the heading "Diabrotica" in terms of ppm of the test compound in the soil.

[7] = test system: Black Bean Aphid [Aphis fabae (Scop.)]; assay: Black bean aphid insecticidal test (BBA), foliar spray; settings: percent of test compound in sprayed solution; 48 hours
Method: as §3

[8] = test system: Maize weevil (Sitophilus zeamais [Motschulsky]); assay: Maize weevil test on treated corn seeds; settings: 0.01% test solution, 48 hours, about 25° C.
Method: Maize weevil (Sitophilus zeamais [Motschulsky])
Test compounds were diluted in a 50:50 acetone:water solution to a concentration of 0.01%. Four corn seeds [Zea mays, (L.)]which had been immersed in test solutions for 2-3 seconds and allowed to dry were placed in covered containers at a temperature of about 25° C. Mortality was recorded after 48 hours.

[9] = test system: Cabbage Looper [Trichoplusia ni (Hubner)]; assay: Cabbage looper test (CL); settings: percent of test compound in solution; second-instar larvae; 3-5 days
Method: as §3
Cabbage Looper [Trichoplusia ni (Hubner)]
The test compound was diluted in a 50--50 acetone-water solution. Cotyledons of hyzini squash (Calabacita abobrinha), approximately 1×1.5 inches, were immersed in the test solutions for 2-3 seconds and placed on a wire screen to dry. The dried leaves were placed in petri dished containing a moistened piece of filter paper and infested with 5 secondinstar cabbage looper larvae. The dished were placed in a high humidity chamber. Mortality of the larvae was recorded 3-5 days later. Test concentrations ranged from 0.1% downward. The LC-50 value is expressed below in Table 2 under the heading "CL" in terms of percent of the test compound in solution.

[10] = test system: Aster Leafhopper [Macrosteles fascifrens (Stal)]; assay: Contact residue assay on the aster leafhopper (LH); settings: percent of test compound in solution; adults/nymphs; 48 hours
Method: as §1
Contact Residue Assay on the Aster Leafhopper [Macrosteles fascifrens (Stal)]
Oat seedlings (Avena sp) were grown in a commercial potting soil in cups. When the plants were approximately 10 cm tall they were thinned to three plants per cup and dipped for 2-3 seconds in 50--50 acetone-water solutions of the test compounds. When the plants had dried, a clear plastic tube was placed over them and the bottom end pressed into the cup. Ten aster leafhopper adults/nymphs were then placed in each tube and the tops of the tubes covered with white organdy cloth. Mortality counts were made after 48 hours. Test concentrations ranged from 0.05% down to that at which 50% mortality occurred. The LC50 values are expressed below in Table 2 under the heading "LH" in terms of the percent of the test compound in the solution.

[11] = test system: Housefly [Musca domestica]; assay: Housefly insecticidal test (HF); settings: per 25 female houseflies; mortality at 48 hours
Method: as §1
Housefly [Musca domestica]
The test compound was diluted in acetone and aliquots pipetted onto the bottom of aluminum dishes. To ensure even spreading of the chemical on the bottom of the dishes, 1 ml of acetone containing 0.01% peanut oil was also added to each dish. After all solvents had evaporated, the dishes were placed in circular cardboard cages containing 25 female houseflies, 1-2 days old. The cages were covered on the bottom with cellophane and on the top with tulle netting, and each contained a sugar-water saturated cotton plug for maintenance of the flies. Mortality was recorded after 48 hours. Test levels ranged from 100 μg/25 female houseflies downward. The LC-50 value is expressed below in Table 2 under the heading "HF", in terms of μg of the test compound per 25 female flies.

| Compound | LC50 TBW C (contact) [1] | LC50 BAW [2] | LC50 TBW E (eggs) [3] | LC50 2-SM A (adults) [4] | LC50 2-SM E (eggs) [5] | LC50 Diabrotica [6] | LC50 BBA [7] | mortality at 0.01 % [8] | LC50 CL [9] | LC50 LH [10] | LC50 HF [11] |
| --- | --- | --- | --- | --- | --- | --- | --- | --- | --- | --- | --- |
| CC1(C(=Nc2ccc(Cl)cc2)OCc2cccc(Oc3ccccc3)c2)CC1 [Compound 1] | 0.008% | 0.025% | 0.05% | > 0.05% | > 0.05% | > 25 ppm (soil) |  |  |  |  |  |
| FC(F)(F)c1cccc(N=C(OCc2cccc(Oc3ccccc3)c2)C2CC2)c1 [Compound 9] |  |  | > 0.1% | > 0.05% | > 0.05% | > 25 ppm (soil) | > 0.05% |  |  |  |  |
| Fc1ccc(Oc2cccc(COC(=Nc3ccc(F)c(Cl)c3)C3CC3)c2)cc1 [Compound 11] |  | > 0.1% | 0.05% | > 0.05% | > 0.05% | > 25 ppm (soil) |  |  |  |  |  |
| c1ccc(Oc2cccc(COC(=Nc3ccc4c(c3)OCO4)C3CC3)c2)cc1 [Compound 13] |  |  | > 0.01% | > 0.05% | > 0.05% | > 25 ppm (soil) |  | 50% | 0.002% |  |  |
| CC(C)(C)c1ccc(N=C(OCc2cccc(Oc3ccc(F)cc3)c2)C2CC2)cc1 [Compound 14] |  |  | > 0.1% | 0.02% | 0.02% | > 25 ppm (soil) |  |  | 0.017% | > 0.05% | > 100 µg |
